Measurements published in paper PMC7806714, “Statins for the prevention of proliferative vitreoretinopathy: cellular responses in cultured cells and clinical statin concentrations in the vitreous” (Scientific Reports, 2021).
Values belong to the molecule of their own block, whether it stands above or below them.

Experiments:
[1] = UPLC-MS/MS statin and metabolite concentrations in vitreous of vitrectomy patients on oral statins; format: in vivo, human
Description: The study was conducted according to the tenets of the Declaration of Helsinki, and was approved by the Institutional Review Board and Ethical committee of Helsinki University Central Hospital. Twenty patients were enrolled; fifteen with per oral statin treatment and five controls. Signed informed consent was obtained from each participant prior to the vitreous sampling. Confidentiality of the patient records was maintained when the clinical data were entered into a computer-based standardized data entry for analysis. Sixteen patients were being operated due to PDR; of these, five patients had also Tractional Retinal Detachment (TRD); two patients were operated due to RRD, one due to age-related epiretinal fibrosis (pucker), and one due to a macular hole (Supplementary Table S2). […] All vitrectomies were performed by the recruiting vitreoretinal surgeon (SL). […] The samples were collected by manual aspiration into a syringe via the vitrectomy with the cutting function activated. Sample aliquots were transferred into sterile 1.5 mL microcentrifuge tubes (Freemont, CA, USA) and immediately frozen and stored at − 70 °C until laboratory analysis. […] All reference compounds and internal standards were purchased from Toronto Research Chemicals (Toronto, Canada). Samples (100 µl) were divided into two aliquots and kept at − 80 °C prior to analysis. […] Homogenizer blocks were pre-cooled by placing them at − 20 °C. […] Supernatants (120 µl) were pipetted into analytical vials and the concentrations of the statins were measured with Ultra-high Pressure Liquid Chromatography—tandem Mass Spectrometry (UPLC-MS/MS) technique. The same pre-treatment protocol was used to prepare calibration curves and quality control samples but homogenized and filtered porcine vitreous were used as a matrix instead of human vitreous. A minimum of six calibration curve concentrations was used for quantitation of the compounds. Two parallel calibration curve sets included all eleven analytes and four deuterated internal standards. Three quality control samples in three parallel sets were used to validate the method. The linear range varied from approximately 0.004 to 10 ng/mL depending on the analyte. Limit of quantitation was set to the smallest calibration curve point of each drug. Each sample was analysed twice and the average of these values was designated as the concentration of the sample. […] For rosuvastatin, two metabolites were analysed: rosuvastatin lactone and N-desmethyl rosuvastatin lactone. Rosuvastatin D6 was used as an internal standard. The parent drug, its metabolites and internal standard were analysed from the same sample in each case. Liquid chromatography separation was carried out using a Waters Acquity UPLC instrument (Waters, MA, USA) coupled with Waters HSS T3 C18 (2.1 × 100 mm, 1.8 µm) column at 40 °C. The mobile phase consisted of 0.1% formic acid in ultrapure water (A) and 100% of LC–MS grade acetonitrile (B). […] The flow rate was set to 0.3 mL/min and injection volume 1.5 µl. After every three samples, a solvent blank was run to control for any carry over. Mass spectrometry measurements were carried out using a Waters Xevo Triple Quadruple mass spectrometer (TQ-S) equipped with an ESI source. […] The source parameters were as follows: Capillary voltage 2.8 kV, source temperature 150 °C and desolvation temperature 500 °C. Nitrogen (Aga, Helsinki, Finland) was used as a desolvation gas (800 l/h), a cone gas (150 l/h) and a nebulizer gas (7 bar). Argon (Aga, Helsinki, Finland) was used as a collision gas (0.15 mL/min). The Multiple Reaction Monitoring (MRM) mode was used for quantification. Precursor and fragment ions, as well as other optimized parameters are listed in Supplementary Table S3.

IL-6 = experiment: ELISA of LPS-induced IL-6 release from ARPE-19 cells; settings: then LPS
ARPE-19 cells = experiment: LDH release assay (cell membrane integrity); format: cell-based, human; settings: with and without LPS; Supplementary Fig. S3
Description: Cell viability was assessed by determining the amount of LDH enzyme from culture media using a commercial kit (Promega Corporation, USA) according to the manufacturer’s protocol. This assay provides information about the integrity of the plasma membranes of the cells (high LDH levels meaning cell damage). In addition, the cell viability was examined with MTT assay, as described previously. In viable cells, the mitochondrial succinate dehydrogenase enzyme can metabolize the MTT dye into formazan that absorbs light at the 550 nm wavelength.

[2] = Calculated average steady-state plasma (Eq. 1) and expected vitreal concentrations (Eq. 3); set-up: species or system human; settings: for Calc. Cv: expected vitreal, Eq. 3; for Css,av: plasma, Eq. 1
Description: The concentrations of statins and their metabolites in the vitreous were analysed (see above) and expressed as ng/mL concentrations. These concentrations were compared to published statin concentrations in plasma. […] Maximum concentrations in plasma and the area under the concentration vs time curve values were collected. The expected average statin concentrations in plasma during multiple dose treatment were calculated for the doses that the patients received in our study (Eq. 1):1 Css,av=AUCsingledose/τ where τ is the time interval between doses. The drug concentrations in plasma (C, Cmax, Css, av) include both unbound (Cu) and protein-bound drug. The values for protein binding were obtained from the summary of drug product characteristics for each statin. The free fraction of statin in plasma was calculated based on Eq. (2):2 fu=CuC
The expected drug concentrations in the patients’ vitreous samples were calculated according to Eq. (3)3 Cv=fu×Css,av
Equation (3) assumes that the vitreal drug concentrations equilibrate with the unbound drug concentrations in plasma, because only free drug is expected to cross the blood-ocular barriers.

MCP-1 = experiment: ELISA of LPS-induced MCP-1 release from ARPE-19 cells; settings: 24 h prior to LPS
IL-8 = experiment: ELISA of LPS-induced IL-8 release from ARPE-19 cells; settings: 24 h prior to LPS
[3] = free fraction of drug in plasma; ref summary of product characteristics document; cited from earlier work
PVR rabbit model [4] = system: PVR rabbit model; set-up: method as in PMID 18599521; settings: four intravitreal injections of 15 µM at intervals of two days; end point 28 days; ref [16]; cited from earlier work
PVR rabbit model [5] = experiment: Preclinical PVR rabbit model with intravitreal simvastatin (Kawahara et al.); format: in vivo; settings: Eq. 5; intravitreal dose 0.63 µg, dosing interval 48 h, rabbit CLivt 0.982 mL/h; study data of [16]
[6] = patient 352, PDR, TDR, oral atorvastatin 20 mg
[7] = patient 355, PDR, oral atorvastatin 10 mg
[8] = patient 368, PDR, oral atorvastatin 40 mg
[9] = patient 429, RRD, oral atorvastatin 20 mg
[10] = patient 430, PDR, oral atorvastatin 20 mg
[11] = patient 397, PDR, oral rosuvastatin 20 mg
[12] = patient 412, PDR, oral rosuvastatin 20 mg
[13] = patient 347, PDR, TDR, oral simvastatin 40 mg
[14] = patient 370, PDR, oral simvastatin 40 mg
[15] = patient A101, PDR, TDR, oral simvastatin 40 mg
[16] = oral 40 mg/d, patients' vitreous

- Concentration in vitreous sample [1, 6]: 0.023 ng/mL
- Concentration in vitreous sample [1, 7]: 0.029 ng/mL
- Concentration in vitreous sample [1, 8]: 0.063 ng/mL
- Concentration in vitreous sample [1, 9]: 0.023 ng/mL
- Concentration in vitreous sample [1, 10]: 0.032 ng/mL
Compound: CC(C)c1c(C(=O)Nc2ccccc2O)c(-c2ccccc2)c(-c2ccc(F)cc2)n1CCC1CC(O)CC(=O)O1 (stereo not shown) [2-OH Atv lactone, 2-OH atorvastatin lactone]

- Concentration in vitreous sample [1, 6]: 0.047 ng/mL
- Concentration in vitreous sample [1, 7]: 0.071 ng/mL
- Concentration in vitreous sample [1, 8]: 0.176 ng/mL
- Concentration in vitreous sample [1, 10]: 0.099 ng/mL
Compound: CC(C)c1c(C(=O)Nc2ccccc2O)c(-c2ccccc2)c(-c2ccc(F)cc2)n1CCC(O)CC(O)CC(=O)O (stereo not shown) [2-OH Atv, 2-OH atorvastatin]

- Concentration in vitreous sample [1, 7]: 0.012 ng/mL
- Concentration in vitreous sample [1, 8]: 0.039 ng/mL
- Concentration in vitreous sample [1, 9]: 0.008 ng/mL
- Concentration in vitreous sample [1, 10]: 0.017 ng/mL
Compound: CC(C)c1c(C(=O)Nc2ccc(O)cc2)c(-c2ccccc2)c(-c2ccc(F)cc2)n1CCC1CC(O)CC(=O)O1 (stereo not shown) [4-OH Atv lactone, 4-OH atorvastatin lactone]

- Concentration in vitreous sample [1, 6]: 0.022 ng/mL
- Concentration in vitreous sample [1, 7]: 0.057 ng/mL
- Concentration in vitreous sample [1, 8]: 0.209 ng/mL
- Concentration in vitreous sample [1, 9]: 0.022 ng/mL
- Concentration in vitreous sample [1, 10]: 0.12 ng/mL
Compound: CC(C)c1c(C(=O)Nc2ccc(O)cc2)c(-c2ccccc2)c(-c2ccc(F)cc2)n1CC[C@@H](O)C[C@@H](O)CC(=O)O [4-OH Atv, 4-OH atorvastatin]

- Calc. Cv ([2]; 10 mg/d, India study [22]): 0.046 ng/mL
- Calc. Cv ([2]; 10 mg/d, Jordan study [21]): 0.024 ng/mL
- Calc. Cv ([2]; 10 mg/d, Turkey study [23]): 0.098 ng/mL
- Calc. Cv ([2]; 20 mg/d, China study [25]): 0.037 ng/mL
- Calc. Cv ([2]; 20 mg/d, UK study [26]): 0.153 ng/mL
- Calc. Cv ([2]; 20 mg/d, USA study [24]): 0.049 ng/mL
- Calc. Cv ([2]; 40 mg/d, Finland study [28]): 0.045 ng/mL
- Calc. Cv ([2]; 40 mg/d, Finland study [29]): 0.051 ng/mL
- Calc. Cv ([2]; 40 mg/d, USA study [27]): 0.082 ng/mL
- Css,av ([2]; 10 mg/d, Jordan study [21]): 0.49 ng/mL
- Css,av ([2]; 20 mg/d, China study [25]): 1.85 ng/mL
- Css,av ([2]; 20 mg/d, UK study [26]): 7.63 ng/mL
- Css,av ([2]; 40 mg/d, Finland study [28]): 2.26 ng/mL
- Css,av ([2]; 40 mg/d, Finland study [29]): 2.56 ng/mL
- Css,av ([2]; 40 mg/d, USA study [27]): 4.11 ng/mL
Compound: CC(C)c1c(C(=O)Nc2ccccc2)c(-c2ccccc2)c(-c2ccc(F)cc2)n1CC[C@@H](O)C[C@@H](O)CC(=O)O [Atorvastatin]
- times lower secretion of IL-6 compared to the solvent control (IL-6; 5 µM pre-treatment for 24 h): 1.5 times
- times lower secretion of IL-6 compared to the solvent control (IL-6; 10 µM pre-treatment for 24 h): 1.6 times
- Tolerance by ARPE-19 cells (LDH and MTT) (ARPE-19 cells): well tolerated
- LPS-induced release of MCP-1 (MCP-1; 5 µM): reduced
- LPS-induced release of MCP-1 (MCP-1; 10 µM): reduced
- LPS-induced release of IL-8 (IL-8; 5 µM): reduced
- LPS-induced release of IL-8 (IL-8; 10 µM): reduced

- Concentration in vitreous sample [1, 6]: 0.012 ng/mL
- Concentration in vitreous sample [1, 7]: 0.035 ng/mL
- Concentration in vitreous sample [1, 8]: 0.089 ng/mL
- Concentration in vitreous sample [1, 9]: 0.016 ng/mL
- Concentration in vitreous sample [1, 10]: 0.062 ng/mL
Compound: CC(C)c1c(C(=O)Nc2ccccc2)c(-c2ccccc2)c(-c2ccc(F)cc2)n1CC[C@@H]1C[C@@H](O)CC(=O)O1 [Atv lactone, atorvastatin lactone]

- Concentration in vitreous sample ([1]; patient 371, PDR, dose 0* (control without reported statin treatment)): 0.019 ng/mL
- Concentration in vitreous sample [1, 11]: 0.013 ng/mL
- Concentration in vitreous sample [1, 12]: 0.026 ng/mL
Compound: CC(C)c1nc(NS(C)(=O)=O)nc(-c2ccc(F)cc2)c1/C=C/[C@@H](O)C[C@@H](O)CC(=O)O [N-desmethyl Rsv, n-desmethyl rosuvastatin]

- Concentration in vitreous sample [1, 11]: 0.011 ng/mL
- Concentration in vitreous sample [1, 12]: 0.025 ng/mL
Compound: CC(C)c1nc(N(C)S(C)(=O)=O)nc(-c2ccc(F)cc2)c1/C=C/[C@@H]1C[C@@H](O)CC(=O)O1 [Rsv lactone, rosuvastatin lactone]

- Concentration in vitreous sample [1, 13]: 0.039 ng/mL
- Concentration in vitreous sample [1, 14]: 0.019 ng/mL
- Concentration in vitreous sample [1, 15]: 0.006 ng/mL
Compound: CCC(C)(C)C(=O)O[C@H]1C[C@@H](C)C=C2C=C[C@H](C)[C@H](CC[C@@H](O)C[C@@H](O)CC(=O)O)[C@H]21 [Sim acid, simvastatin acid]

- Measured Cv Average [1, 16]: 0.048 ng/mL
- Measured Cv Range (lower) [1, 16]: 0.027 ng/mL
- Measured Cv Range (upper) [1, 16]: 0.073 ng/mL
- Concentration in vitreous sample [1, 13]: 0.073 ng/mL
- Concentration in vitreous sample [1, 14]: 0.044 ng/mL
- Concentration in vitreous sample [1, 15]: 0.027 ng/mL
- therapeutic Css, average in PVR rabbit model (PVR rabbit model [5]): 13.3 ng/mL
Compound: CCC(C)(C)C(=O)O[C@H]1C[C@@H](C)C=C2C=C[C@H](C)[C@H](CC[C@@H]3C[C@@H](O)CC(=O)O3)[C@H]21 [Simvastatin]
- effect in preclinical PVR rabbit model (PVR rabbit model [4]): Clear beneficial effects
